Test results from patent EP2559435A1, “Rotigotine in the treatment of hemispatial neglect, stroke and deficits following stroke” (UCB Pharma GmbH, priority 2011, dated 2013).
Like-named read-outs stand apart in the source and are kept apart here.

Experiments:
neglect patients = settings: cited from earlier work
[1] = system: patients with hernispatial neglect and unilateral weakness following right hemisphere stroke; assay: Mesulam cancellation (visual search) task of hemispatial neglect, clinical trial; format: in vivo
Method: (§1) A commercially available rotigotine TTS has been tested in a double-blind, randomised, placebo controlled trial of the dopamine agonist rotigotine in 16 patients aged over 18 years with hernispatial neglect and unilateral weakness following right hemisphere stroke.
(§2) Patients were assessed with a battery of standardised neglect tests, as well as with tests of working memory, selective and sustained attention and motor function. A replicated ABA double-blind, placebo-controlled N-of-1 randomised design (Edgington E, Onghena P. Randomization Tests (Statistics: a Series of Textbooks and Monographs). 4th ed. Chapman & Hall/CRC: 2007), which allows to evaluate the effectiveness of an intervention in small sample sizes. Each patient's performance was measured in three phases, each consisting of several assessment sessions: before treatment (phase A1), while receiving transdermal rotigotine (phase B) and after discontinuation of the drug - post treatment phase (phase A2). The exact duration of each phase was randomised across patients. Performance on rotigotine was compared with the pre-treatment baseline and post-treatment follow-up phases.
(§3) The effects of the drug were evaluated for the whole group of 16 patients, and, separately for two subgroups with different extent of involvement of the prefrontal cortex in the stroke lesion. The subgroups are defined according to the extent of involvement of the prefrontal cortex in the stroke lesion: a minimal prefrontal involvement subgroup (0%-15% of the prefrontal cortex affected) and an extensive prefrontal subgroup (33%-55% of the prefrontal cortex affected).
Phase A1 started on session 1 and its duration was randomised (across individuals) to between 5 and 9 days. Observations during this phase established the baseline performance. Phase B, when rotigotine was administered, could commence on day 6 to day 10, and its duration was a minimum of 7 and a maximum of 11 sessions. During treatment phase, a rotigotine 9 mg patch (4mg/24hr transdermal absorption) was applied daily and worn for 24 hours a day. Finally, phase A2, when patients were assessed after the discontinuation of rotigotine, was randomised to begin between sessions 13 and 17, and it lasted for the remaining 4 to 8 sessions.
Each patient was randomly assigned a pattern of onset and duration of the treatment and baseline phases, within the duration limits described above. In this example, the patient had 6 baseline assessments (phase A1, sessions 1-6), followed by 8 days on rotigotine (sessions 7-14) and 6 follow-up assessments (phase A2, sessions 15-20) after discontinuation of the drug. […] Mid-grey depicts any additional sessions in phases A1 and A2 when the patient received placebo patches. Some other possible permutations of pre-treatment, treatment and post-treatment phases within the constraints of the design are shown in figure 1b. The actual difference in performance between treatment (B) and the off-treatment phases (A1 and A2) was ranked against the differences between phases produced by all other possible combinations of treatment allocation, given the limits in phase onset and duration. In total, there were 15 possible permutations.
This visuospatial scanning test-further described in Mesulam, M.-M. Principles of Behavioural Neurology; tests of directed attention and memory (Davis, Philadelphia, 1985) - with a cluttered array of symbols is performed on A3 sheets. In this test visual target objects are identified among distracters; targets identified are marked by the participant (black circles in fig. 2). There was a 2 minutes time limit for this task. […] Furthermore, on rotigotine, there was an improvement in the spatial bias of the responses, measured as the proportion of the targets identified on the left when compared to those identified on the right. In the minimal prefrontal involvement subgroup, rotigotine had again a significant positive effect in the number of targets identified on the left. […]

[2] = system: patients with hernispatial neglect and unilateral weakness following right hemisphere stroke; assay: Selective and sustained attention (vigilance) task, clinical trial; format: in vivo
Method: as §1, §2, §3
(§4) Phase A1 started on session 1 and its duration was randomised (across individuals) to between 5 and 9 days. Observations during this phase established the baseline performance. […] Finally, phase A2, when patients were assessed after the discontinuation of rotigotine, was randomised to begin between sessions 13 and 17, and it lasted for the remaining 4 to 8 sessions.
The subject had to identify high- or low- sallence targets among non targets on either side. % correct and reaction times are measured, further described in Barcelo et al. Nature Neuroscience 2000 3:399-403.
Participants detected targets (inverted triangles) among sequences of distractors (upright triangles) randomly presented to the ipsilesional and contralesional visual fields. […]
As a measure of selective attention, the ratio of the reaction time (RT) to high visual salience targets over the RT to low visual salience targets was used. Furthermore, using this task, sustained attention was quantified over time, by measuring the difference in RT and % correct responses between the first and the second half of each experimental session. […]

[3] = system: patients with hernispatial neglect and unilateral weakness following right hemisphere stroke; assay: Motricity Index (motor function on the affected side), clinical trial; format: in vivo; settings: in some patients
Method: as §1
as §2, with “Performance on rotigotine was compared with the pre-treatment baseline and post-treatment follow-up phases.” left out
as §4, with “days.” for “days. Observations during this phase established the baseline performance.”, “sessions. […]” for “sessions.”

[4] = system: patients with hernispatial neglect and unilateral weakness following right hemisphere stroke; assay: Vertical Corsi spatial working memory task, clinical trial; format: in vivo; settings: in some patients
Method: as §1
as §2, with “Performance on rotigotine was compared with the pre-treatment baseline and post-treatment follow-up phases.” left out
as §4, with “days.” for “days. Observations during this phase established the baseline performance.”, “sessions. […]” for “sessions.”

[5] = system: patients with hernispatial neglect and unilateral weakness following right hemisphere stroke; assay: Touchscreen cancellation task of hemispatial neglect, clinical trial; format: in vivo; settings: group of all 16 patients; on rotigotine vs before treatment onset
Method: as §1
as §2, with “Performance on rotigotine was compared with the pre-treatment baseline and post-treatment follow-up phases.” left out
as §4, with “days.” for “days. Observations during this phase established the baseline performance.”, “sessions. […]” for “sessions.”

SMILES: NC12CC3CC(CC(C3)C1)C2 [amantadine]
- effect on hemispatial neglect (neglect patients; small-scale trial in four neglect patients (Buxbaum et al. 2007)): did not demonstrate any beneficial effect

SMILES: CCCN(CCc1cccs1)C1CCc2c(O)cccc2C1 (single isomer, unassigned; (-)) [rotigotine, (-)-5,6,7,8-tetrahydro-6-[propyl-[2-(2thienyl)ethyl]-amino]-1-naphthalenol]
- number of targets found on the left side ([1]; entire group of 16 patients, on rotigotine vs pre- and post-treatment phases averaged or post-treatment phase alone): significantly higher
- difference on- and off-treatment in the number of targets found on the left side relative to baseline ([1]; entire group of 16 patients, rotigotine 9 mg patch (4mg/24hr) daily, actual treatment allocation higher than mean difference of all possible permutations): 12.8%
- effect size: less rightward bias relative to baseline (spatial bias in visual search) ([1]; entire group of 16 patients, rotigotine 9 mg patch (4mg/24hr) daily, actual treatment allocation in comparison to all possible permutations): 8.1%
- spatial bias in visual search ([1]; entire group, on rotigotine vs post-treatment phase or both off-treatment phases): improved significantly
- decrease in the number of targets found in a smaller area on the right hand side ([1]; entire patient group, during treatment): not statistically significant
- spatial bias ([1]; extensive prefrontal group, on rotigotine): improved significantly
- number of left targets found ([1]; extensive prefrontal subgroup (33%-55% of prefrontal cortex affected), on rotigotine): did not reach significance
- number of targets identified in total ([1]; group of all 16 patients, on rotigotine): significantly larger number of targets
- number of left targets found ([1]; minimal prefrontal subgroup (0%-15% of prefrontal cortex affected), on rotigotine): significantly higher
- ratio of RT to high salience vs low salience targets ([2]; entire group, left sided targets, during treatment vs pre-treatment baseline): significant increase
- ratio of RT to high salience vs low salience targets ([2]; entire group, left sided targets, treatment vs post-treatment baseline or average of both off-treatment phases): only marginal
- ratio of RT to high salience vs low salience targets ([2]; extensive prefrontal subgroup, overall for both left and right-sided targets): significant beneficial effect
- ratio of RT to high salience vs low salience targets ([2]; minimal prefrontal subgroup (e.g. left sided targets, comparison with off-treatment average)): no significant effect
- motor function on the affected side (Motricity Index of the affected arm, leg and side) [3]: improved motor function on the affected side
- spatial working memory (spatial span) [4]: improved spatial working memory
- targets identified [5]: more targets were identified

SMILES: CN1CCc2cccc3c2[C@H]1Cc1ccc(O)c(O)c1-3 [Apomorphine]
- effect on hemispatial neglect (neglect patients; four neglect patients tested (Geminiani et al. 1998)): transient improvement in three out of four neglect patients
